Assays:
iNOS = assay: Survey of iNOS inhibition, 2 hr LPS pre-stimulation (nitrite by Greiss reagent); assay type: cell-based, murine; settings: RAW 264.7 cells, LPS/ATP stimulation for two hours, then compound added
Experimental: We chose the well characterized LPS stimulation of the murine macrophage cell line RAW 264.7, that produces substantial quantities of NO, to screen inositol polyphosphate compounds in vitro (FIGS. 8-12 and Table 1). This assay system offers a number of opportunities to characterize drug action as pre-transcriptional, post transcriptional, translational or post translational.
Nitrite (NO2^−) accumulation in cell-free supernatant, used as an indicator of NO production, was measured using the modified Greiss reagent (Sigma G4410, St Louis, Mo.). This method was applied as described elsewhere (Martinez, J. et al., “Regulation of prostaglandin E2 production by the superoxide radical and nitric oxide in mouse peritoneal macrophages,” Free Radical Res 32:303-311 (2000)). Briefly, RAW264.7 cells (ATCC, #TIB-71) were maintained in standard tissue culture flasks and with DMEM+10% heat inactivated fetal bovine serum(HI-FBS) (Fetal-bovine serum, Heat-inactivated, Sercare Life Sciences, Oceanside, Calif.). Experiments were initiated by seeding logarithmic cells at […] per well in a 96-well plate in phenol-red free RPMI 1640 (Sigma #R8755)+10% HI-FBS at least four hours before the initiation of the experiment. Cells were exposed to treatment compounds for a minimum of 30 minutes in RPMI-1640 supplemented with 10% fetal calf serum. The compound treatment was removed and inflammatory compounds dissolved in RPMI-1640 supplemented with 10% FBS were applied to the cells. Stimulated cells and appropriate controls were incubated for 18-24 hours before sampling 50 μl of the cell-free supernatant from each well. This sample of supernatant was combined with 25 μl of a nitrate reductase cocktail (0.1 units/ml nitrate reductase enzyme, 5 μM FAD, 30 μM NADPH) and incubated for 30 minutes[…]. To this mixture, 25 μl of LDH cocktail (100 units/ml rabbit muscle lactate dehydrogenase in 0.3 mM sodium pyruvate) was added and the total mixture was incubated another 5-10 min at […]. Greiss reagent was added in 100 μl amounts to each 100 μl experimental sample. Color development proceeded for a minimum of 10 minutes while protected from light. Nitrite levels were compared to a sodium nitrite standard curve freshly prepared in the same medium used for the growth and incubation of the cells and treated with the same enzyme treatments. Color development was recorded by using a Packard Spectracount Plate reader at 540 nm wave length.
It is important to identify the conditions under which the compounds exert their greatest desired effect with the minimal adverse effects. Understanding this relationship is important as signaling molecule mimetics may require special conditions of concentration and duration to generate the desired therapeutic effect. To ascertain whether effects could be observed post-exposure to stimulus, cells were exposed to the LPS/ATP stimulation for two hours at […] after which compound was added.

human CF nasal epithelia = assay: Blue Dextran volume transport assay; assay type: cell-based; settings: CF nasal epithelia monolayers, apical application, 18 hours
From the text: In normal human airway epithelia, Na+ and Cl− currents (CFTR and Ca2+-activated Cl− currents) contribute to airway surface liquid (ASL) fluid volume regulation depending on signaling equilibria. In contrast, in human CF airway epithelia, Na+ currents through ENaC dominate basal ASL volume regulation accompanied by a relatively minor contribution through Ca2+-activated Cl− currents. The combination of enhanced ENaC currents and transient Ca2+-activated Cl− currents in CF result in an inadequate hydration of the ASL and reduction of mucociliary clearance. […] The resulting reduction in the ability of these monolayers to concentrate BD was taken as a functional indicator of the test compound's involvement in the inhibition of ENaC.
All procedures were performed aseptically. The Blue Dextran (BD) stock solution was prepared with HEPES modified Ringer's buffer (HMRB) (2 mg BD/ml buffer). The compounds tested were solubilized in HMRB containing ˜1 μM BD. Final concentration of vehicle is 0.1% unless otherwise indicated (1:1, DMSO+DMSO containing 5% (w/v) pluronic-F127). The composition of HMRB (pH 7.3, 6.7 when equilibrated with 95%air/5%CO2) is as follows (in mM): 135 NaCl, 1.2 CaCl2, 1.2 MgCl2, 2.4 K2HPO4, 0.6 KH2PO4, 10 HEPES, 10 glucose (˜285 mOsm.). 200 μl of the BD solution was applied to the apical surface and placed in a highly humidified incubator (Forma model 3956 set on “high” humidity) for 18 hours. Basolateral buffer consisted of BEGM (˜300 mOsm.). After 18 hours, 60 μl of the remaining apical buffer was sampled and transferred to a 0.7 ml micro-centrifuge tube for storage until analysis. A standard concentration curve was obtained by determining the optical densities, at 660 nm, of a serial dilution of 10 μM Blue Dextran in HMRB in a 96-well plate using a Packard Spectracount. The [BD] of the samples, which were read on the same plate, was determined by extrapolation from the BD standard curve using Packard I-Smart software. The increase in [BD] from the starting value of 1 μM was taken to be an indication of the magnitude of volume absorption occurring across the monolayer. The rate of absorption was calculated by dividing the change in volume by the duration of the experiment. This value was normalized to a surface area of 1 cm^2, to give μl·cm2 −1·hr −1. All experiments, unless otherwise indicated, were conducted over a period of 18 hours.

CFHNE cell monolayers = assay: Cystic fibrosis human nasal epithelial cell Ussing chamber assay; assay type: cell-based; settings: 2 hour pretreatment, measured 22 hours later
From the text: CF Human Nasal Epithelial (CFHNE) Cell Isolation and Proliferation: Surgically removed nasal polyps were obtained from volunteers in collaboration with Dr. Bonnie Ramsey at Children's Hospital, Seattle and Dr. Ludwig Allegra at the Northwest Nasal Sinus Center, and transported on ice in a sterile container containing a 1:1 mixture of Dulbecco's modification of minimum essential medium Eagle and Ham's F-12 nutrient medium (DMEM/F-12)(Irvine Scientific, Santa Ana, Calif.) supplemented with 100 U/ml penicillin, 0.1 mg/ml streptomycin, 10 mM HEPES, and 2 mM L-glutamine. The tissue samples were aseptically removed from the transport medium and washed (repeated 5X) by suspending in 40 ml of Joklik's modification of minimum essential medium Eagle (JMEM) at 4° C., and centrifuging at 500 RPM. The supernatant was aspirated and discarded. The tissue was then transferred to JMEM containing 200 U/ml penicillin, 0.2 mg/ml streptomycin, 0.1 mg/ml gentamicin sulfate (Clonetics, San Diego, Calif.), and 0.1 μg/ml amphotericin-B (Clonetics), and 0.1% Protease (Sigma), washed an additional 2×, suspended in 15 ml in a 10 cm tissue culture dish, and incubated at 4° C. for 24 hours. The tissue samples were then gently triturated, the connective tissue aseptically removed, and the remaining cell suspension centrifuged at 1000 RPM for 5 min. […] The cells were then counted using a hemocytometer. […]

IC50 (iNOS; experiment 1 of three) [µM]	IC50 (iNOS; experiment 2 of three) [µM]	IC50 (iNOS; experiment 3 of three) [µM]	Compound	inhibition of fluid absorption (human CF nasal epithelia)	effect on basal Isc (CFHNE cell monolayers)
18	3.13	12.5	CCC(=O)OCOP(=O)(OCOC(=O)CC)OC1C2OC3(CC4CCC3(C)C4(C)C)OC2C(OP(=O)(OCOC(=O)CC)OCOC(=O)CC)C(OP(=O)(OCOC(=O)CC)OCOC(=O)CC)C1OP(=O)(OCOC(=O)CC)OCOC(=O)CC (centres unmarked) [INO-4984, 2,3-camphanylidene-myo-inositol 1,4,5,6-tetrakisphosphate octakis (propionoxymethyl) ester]	dose dependent inhibition of fluid absorption	–
6.25	3.13	6.25	CCC(=O)OCOP(=O)(OCOC(=O)CC)OC1C2OC3(CC4CCC3(C)C4(C)C)OC2C(OP(=O)(OCOC(=O)CC)OCOC(=O)CC)C(OP(=O)(OCOC(=O)CC)OCOC(=O)CC)C1OP(=O)(OCOC(=O)CC)OCOC(=O)CC (centres unmarked) [INO-4996, 1,2-camphanylidene-myo-inositol 3,4,5,6-tetrakisphosphate octakis (propionoxymethyl) ester]	dose dependent inhibition of fluid absorption	–
12.5	12.5	9	CCCC(=O)OC1C(OCCCc2ccccc2)C(OP(=O)(OCOC(=O)CC)OCOC(=O)CC)C(OP(=O)(OCOC(=O)CC)OCOC(=O)CC)C(OP(=O)(OCOC(=O)CC)OCOC(=O)CC)C1OP(=O)(OCOC(=O)CC)OCOC(=O)CC (centres unmarked) [INO-4997, 2-O-butyryl-1-O-(3-phenylpropyl)-myo-inositol 3,4,5,6-tetrakisphosphate octakis (propionoxymethyl) ester]	dose dependent inhibition of fluid absorption	prolonged effect
–	–	–	N=C(N)NC(=O)c1nc(Cl)c(N)nc1N [amiloride, reference compound]	inhibited fluid absorption measured by the Blue Dextran assay in a dose dependent fashion	–

Reference: US20070129336A1, “Camphanylidene and phenylalkyl inositol polyphosphate compounds, compositions, and methods of their use” (Inologic, Inc., priority 2003, published 2007)
